The text below walks through data of BindingDB's records for doi:10.1016/j.bmcl.2008.03.027 (Scripps Florida, 2008).

Steroidogenic factor 1, sequence (Q13285 whole entry, the tested form may be a part): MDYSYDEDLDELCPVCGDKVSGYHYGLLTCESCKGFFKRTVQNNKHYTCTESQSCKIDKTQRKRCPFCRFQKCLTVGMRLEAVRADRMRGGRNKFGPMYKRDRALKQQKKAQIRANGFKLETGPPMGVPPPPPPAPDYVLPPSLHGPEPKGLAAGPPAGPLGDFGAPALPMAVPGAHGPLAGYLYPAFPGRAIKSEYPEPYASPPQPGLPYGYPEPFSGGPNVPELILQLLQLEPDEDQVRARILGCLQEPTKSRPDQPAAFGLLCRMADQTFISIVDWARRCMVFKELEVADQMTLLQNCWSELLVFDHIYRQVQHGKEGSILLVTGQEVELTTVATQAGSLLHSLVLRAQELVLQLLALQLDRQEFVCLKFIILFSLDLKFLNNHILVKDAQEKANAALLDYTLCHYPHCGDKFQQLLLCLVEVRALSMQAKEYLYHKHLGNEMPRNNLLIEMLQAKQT

The experiment addresses Steroidogenic factor 1 (Homo sapiens, UniProt Q13285). Put plainly: Transactivation Cell-Based Assay. The procedure:
The assay was to monitor the SF-1 activation state via co-transfection of CHO-K1 cells with a plasmid encoding a Gal4-SF-1 chimerical transcription factor, pGal4DBD-SF-1-LBD, and a second plasmid driving luciferase expression under control of 5 multimerized Gal4 binding sites. The assay began by dispensing transfected cell suspension to each well (4,000 cells / well) of a white solid-bottom 1536-well plate. One hour after seeding, cells were treated with test compounds or DMSO alone (high control). The -NR cells (not co-transfected with nuclear receptor) were treated with DMSO (low control). After incubation, the luciferase assay was performed, and light emission was measured for 30 seconds with the ViewLux reader (PerkinElmer, Turku, Finland). Activity of each compound was calculated using the equation: Percent inhibition of compound=100 x (1-(test well-low control)/ (high control-low control)) EC50/IC50 is the concentration of test compound to exert 50% inhibition.
By EC50 is commonly meant the concentration needed to bring the measured effect to its halfway point. A high value points to weaker potency. On to `CCOC(=O)C(C)Oc1cccc2c(=O)n(CC(=O)Nc3ccc(CC)cc3)ccc12` (stereo unspecified) [ethyl 2-[(2-{[(4-ethylphenyl)carbamoyl]methyl}-1-oxo-1,2-dihydroisoquinolin-5-yl)oxy]propanoate], for which the midpoint of the response, the EC50, lay at 110 nM. This lies in the sub-micromolar range.
The result for `CCOC(=O)C(C)Oc1cccc2c(=O)n(CC(=O)Nc3ccc(OC)cc3)ccc12` (stereo unspecified) [ethyl 2-[(2-{[(4-methoxyphenyl)carbamoyl]methyl}-1-oxo-1,2-dihydroisoquinolin-5-yl)oxy]propanoate] reads 200 nM; that for `CCOC(=O)C(C)(C)Oc1cccc2c(=O)n(CC(=O)Nc3ccc4c(c3)OCCO4)ccc12` [ethyl 2-({2-[(2,3-dihydro-1,4-benzodioxin-6-ylcarbamoyl)methyl]-1-oxo-1,2-dihydroisoquinolin-5-yl}oxy)-2-methylpropanoate], 590 nM.
With `CCOC(=O)C(C)Oc1cccc2c(=O)n(CC(=O)Nc3ccc(C)cc3)ccc12` (stereo unspecified) [ethyl 2-[(2-{[(4-methylphenyl)carbamoyl]methyl}-1-oxo-1,2-dihydroisoquinolin-5-yl)oxy]propanoate] the figure was 340 nM; with `CCOC(=O)C(C)Oc1cccc2c(=O)n(CC(=O)NCCc3ccccc3)ccc12` (stereo unspecified) [ethyl 2-[(1-oxo-2-{[(2-phenylethyl)carbamoyl]methyl}-1,2-dihydroisoquinolin-5-yl)oxy]propanoate], 360 nM; with `CCOC(=O)C(C)Oc1cccc2c(=O)n(CC(=O)Nc3ccc([N+](=O)[O-])cc3)ccc12` (stereo unspecified) [ethyl 2-[(2-{[(4-nitrophenyl)carbamoyl]methyl}-1-oxo-1,2-dihydroisoquinolin-5-yl)oxy]propanoate], 530 nM.
`CCC(C)Oc1cccc2c(=O)n(CC(=O)Nc3ccc4c(c3)OCCO4)ccc12` (stereo unspecified) [2-[5-(butan-2-yloxy)-1-oxo-1,2-dihydroisoquinolin-2-yl]-N-(2,3-dihydro-1,4-benzodioxin-6-yl)acetamide] returned an EC50 of 7860 nM. This EC50 is about 15-fold higher than that of the compound before.
With `CCOC(=O)C(C)Oc1cccc2c(=O)n(CCC(=O)Nc3ccc4c(c3)OCCO4)ccc12` (stereo unspecified) [ethyl 2-({2-[2-(2,3-dihydro-1,4-benzodioxin-6-ylcarbamoyl)ethyl]-1-oxo-1,2-dihydroisoquinolin-5-yl}oxy)propanoate] the figure was 8460 nM; with `CCCCc1ccc(NC(=O)Cn2ccc3c(OC(C)C(=O)OCC)cccc3c2=O)cc1` (stereo unspecified) [ethyl 2-[(2-{[(4-butylphenyl)carbamoyl]methyl}-1-oxo-1,2-dihydroisoquinolin-5-yl)oxy]propanoate], 360 nM.
Consider `CCCCC(C)Oc1cccc2c(=O)n(CC(=O)Nc3ccc4c(c3)OCCO4)ccc12` (stereo unspecified) [N-(2,3-dihydro-1,4-benzodioxin-6-yl)-2-[5-(hexan-2-yloxy)-1-oxo-1,2-dihydroisoquinolin-2-yl]acetamide], for which the EC50 came out at 880 nM. This EC50 lies about 2.4-fold higher than the previous one.
With `CCOC(=O)C(C)Oc1cccc2c(=O)n(CC(=O)Nc3ccc4c(c3)OCCO4)ccc12` (stereo unspecified) the figure was 760 nM; with `CCCCNC(=O)Cn1ccc2c(OC(C)C(=O)OCC)cccc2c1=O` (stereo unspecified) [ethyl 2-({2-[(butylcarbamoyl)methyl]-1-oxo-1,2-dihydroisoquinolin-5-yl}oxy)propanoate], 9710 nM; with `CCOC(=O)C(C)Oc1cccc2c(=O)n(CC(=O)NCc3ccc(F)cc3)ccc12` (stereo unspecified) [ethyl 2-{[2-({[(4-fluorophenyl)methyl]carbamoyl}methyl)-1-oxo-1,2-dihydroisoquinolin-5-yl]oxy}propanoate], 680 nM.
The result for `CCOC(=O)C(C)Oc1cccc2c(=O)n(CC(=O)NC3CCCCC3)ccc12` (stereo unspecified) [ethyl 2-({2-[(cyclohexylcarbamoyl)methyl]-1-oxo-1,2-dihydroisoquinolin-5-yl}oxy)propanoate] reads 1770 nM.
The result for `CCOC(=O)C(C)Oc1cccc2c(=O)n(CC(=O)NCc3ccc4c(c3)OCO4)ccc12` (stereo unspecified) [ethyl 2-[(2-{[(2H-1,3-benzodioxol-5-ylmethyl)carbamoyl]methyl}-1-oxo-1,2-dihydroisoquinolin-5-yl)oxy]propanoate] reads 260 nM; that for `CCOC(=O)C(C)Oc1cccc2c(=O)n(CC(=O)NCc3ccccc3)ccc12` (stereo unspecified) [ethyl 2-({2-[(benzylcarbamoyl)methyl]-1-oxo-1,2-dihydroisoquinolin-5-yl}oxy)propanoate], 1060 nM.
The compound `CCOC(=O)C(C)Oc1cccc2c(=O)n(CC(=O)N(C)c3ccc4c(c3)OCCO4)ccc12` (stereo unspecified) [ethyl 2-[(2-{[2,3-dihydro-1,4-benzodioxin-6-yl(methyl)carbamoyl]methyl}-1-oxo-1,2-dihydroisoquinolin-5-yl)oxy]propanoate] yielded an EC50 of 3570 nM. Against the preceding compound, the EC50 is about 3.4-fold higher.
With `CCOC(=O)C(C)Oc1cccc2c(=O)n(CC(=O)NCc3ccco3)ccc12` (stereo unspecified) [ethyl 2-[(2-{[(furan-2-ylmethyl)carbamoyl]methyl}-1-oxo-1,2-dihydroisoquinolin-5-yl)oxy]propanoate], a half-maximal response (EC50) required 4710 nM. This EC50 and that of the compound before are within 1.5-fold of each other.
The result for `CCOC(=O)C(C)Oc1cccc2c(=O)n(CC(=O)Nc3ccc(OC(F)(F)F)cc3)ccc12` (stereo unspecified) [ethyl 2-{[1-oxo-2-({[4-(trifluoromethoxy)phenyl]carbamoyl}methyl)-1,2-dihydroisoquinolin-5-yl]oxy}propanoate] reads 200 nM.
For the compound `CCCCOc1cccc2c(=O)n(CC(=O)Nc3ccc4c(c3)OCCO4)ccc12` [2-(5-butoxy-1-oxo-1,2-dihydroisoquinolin-2-yl)-N-(2,3-dihydro-1,4-benzodioxin-6-yl)acetamide], a half-maximal effect (EC50) was put at 13700 nM. This EC50 is about 68-fold higher than that of the compound before.
Regarding `CCOC(=O)C(C)Oc1cccc2c(=O)n(CC(=O)Nc3ccc(OCC)cc3)ccc12` (stereo unspecified) [ethyl 2-[(2-{[(4-ethoxyphenyl)carbamoyl]methyl}-1-oxo-1,2-dihydroisoquinolin-5-yl)oxy]propanoate], a half-maximal effect (EC50) was put at 190 nM.
